Measured values published in US20020035061A1, “COMPOSITIONS AND METHODS FOR TREATING INFECTIONS USING CATIONIC PEPTIDES ALONE OR IN COMBINATION WITH ANTIBIOTICS” (priority 1996, published 2002).
Read-outs that look alike come from different tables or passages of the source.

Tests used:
Format in all cases: cell-based
[1] = tested on: S. aureus
[2] = tested on: K. pneumoniae
[3] = tested on: S. maltophilia
[4] = tested on: E. coli
[5] = tested on: P. aeruginosa
[6] = tested on: E. cloacae
[7] = tested on: S. epidermidis
[8] = tested on: S. marcescens
[9] = tested on: A. calcoaceticus
[10] = tested on: E. faecalis

Sequence | MIC ([1]; S. aureus SA014) [µg/mL] | MIC ([2]; K. pneumoniae KP001) [µg/mL] | MIC ([3]; S. maltophilia SMA002) [µg/mL] | MIC ([4]; E. coli ECO005) [µg/mL] | MIC ([5]; P. aeruginosa PA004) [µg/mL] | MIC ([6]; E. cloacae ECL007) [µg/mL] | MIC ([7]; S. epidermidis SE010) [µg/mL] | MIC ([8]; S. marcescens SMS003) [µg/mL] | MIC ([9]; A. calcoaceticus AC002) [µg/mL] | MIC ([10]; E. faecalis EFS008) [µg/mL] | MIC ([1]; S. aureus SA093) [µg/mL] | MIC ([10]; E. faecalis EFS001) [µg/mL] | other results
ILKKWPWWPWRRK [MBI 11ACN] | 8 | 16 | 64 | 16 | >128 | >128 | 4 | >128 | 2 | 64 | – | – | MIC ([10]; E. faecalis EFS004): 8 µg/mL
RWWWPWRRK [MBI 11G28CN] | 4 | 64 | 32 | 8 | 128 | >128 | 4 | >128 | 2 | 32 | 1 | 4 | –
ILRWPWWPWARK [MBI 11H10CN] | 4 | 16 | 64 | 16 | >128 | >128 | 4 | >128 | 4 | 8 | 1 | 2 | –
ILRWPWWPWWPWRRK [MBI 11A9CN] | – | – | – | – | – | – | – | – | – | – | – | – | MIC ([1]; S. aureus strain SA014): 4 µg/mL; MIC ([1]; S. aureus strain SA093): 2 µg/mL; MIC ([2]; K. pneumoniae strain KP001): 32 µg/mL; MIC ([3]; S. maltophilia strain SMA002): 32 µg/mL; MIC ([4]; E. coli strain ECO005): 32 µg/mL; MIC ([5]; P. aeruginosa strain PA004): 128 µg/mL; MIC ([6]; E. cloacae strain ECL007): 128 µg/mL; MIC ([7]; S. epidermidis strain SE010): 4 µg/mL; MIC ([8]; S. marcescens strain SMS003): >128 µg/mL; MIC ([9]; A. calcoaceticus strain AC002): 8 µg/mL; MIC ([10]; E. faecalis strain EFS001): 2 µg/mL; MIC ([10]; E. faecalis strain EFS008): 8 µg/mL
LRWWWPWRRK [MBI 11G25CN] | 2 | 16 | 32 | 8 | 64 | >128 | 2 | >128 | 2 | 16 | 1 | 2 | –
ILRWPWWPARRK [MBI 11H09CN] | 8 | 64 | 64 | 32 | >128 | >128 | 16 | >128 | 4 | 64 | 2 | 4 | –
ILKKNPNNPNRRK [MBI 11CNY1] | – | >64 | >64 | >64 | >64 | >64 | 128 | >64 | – | – | – | – | MIC ([1]; S. aureus SA006): 16 µg/mL; MIC ([9]; A. calcoaceticus AC001): >64 µg/mL; MIC ([10]; E. faecalis EFS004): >64 µg/mL
ILRWPWWAWRRK [MBI 11H08CN] | 4 | 32 | 32 | 8 | >128 | >128 | 4 | >128 | 4 | 8 | 1 | 2 | –
ILRWAWWPWRRK [MBI 11H05CN] | 2 | 8 | 16 | 8 | 128 | >128 | 4 | >128 | 4 | 8 | 1 | 2 | –
ILRYVYYVYRRK [MBI 11A8CN] | – | – | – | – | – | – | – | – | – | – | – | – | MIC ([1]; S. aureus strain SA093): 1 µg/mL; MIC ([2]; K. pneumoniae strain KP001): 128 µg/mL; MIC ([3]; S. maltophilia strain SMA002): 32 µg/mL; MIC ([4]; E. coli strain ECO005): 32 µg/mL; MIC ([5]; P. aeruginosa strain PA004): >128 µg/mL; MIC ([6]; E. cloacae strain ECL007): >128 µg/mL; MIC ([7]; S. epidermidis strain SE010): 16 µg/mL; MIC ([8]; S. marcescens strain SMS003): >128 µg/mL; MIC ([9]; A. calcoaceticus strain AC002): 8 µg/mL; MIC ([10]; E. faecalis strain EFS001): 4 µg/mL
LRWPWWPW [MBI 11G26CN] | 4 | 32 | 128 | 32 | >128 | >128 | 4 | >128 | 2 | 4 | 0.5 | 2 | –
